ChEMBL document CHEMBL4665683, “Oxygenated Geosmins and Plant-like Eudesmanes from a Bacterial Mangrove Endophyte” (2020)

How the values were obtained:
Assay type in all cases: functional
Staphylococcus aureus [1] = assay: Antibacterial activity against Staphylococcus aureus SG511 assessed as zone of inhibition after 24 hrs by disk diffusion method
Pseudomonas aeruginosa [2] = assay: Antibacterial activity against Pseudomonas aeruginosa BG137 B7 assessed as zone of inhibition after 24 hrs by disk diffusion method
Mycolicibacterium vaccae = assay: Antibacterial activity against Mycobacterium vaccae IMET 10670 assessed as zone of inhibition after 24 hrs by disk diffusion method
Pseudomonas aeruginosa [3] = assay: Antibacterial activity against Pseudomonas aeruginosa K799/61 assessed as zone of inhibition after 24 hrs by disk diffusion method
Enterococcus faecalis = assay: Antibacterial activity against vancomycin-resistant Enterococcus faecalis 1528 R10 assessed as zone of inhibition after 24 hrs by disk diffusion method
Escherichia coli = assay: Antibacterial activity against Escherichia coli SG458 assessed as zone of inhibition after 24 hrs by disk diffusion method
Staphylococcus aureus [4] = assay: Antibacterial activity against methicillin-resistant Staphylococcus aureus 134/94 R9 assessed as zone of inhibition after 24 hrs by disk diffusion method
Bacillus subtilis = assay: Antibacterial activity against Bacillus subtilis ATCC 6633 assessed as zone of inhibition after 24 hrs by disk diffusion method
[5] = test system: Sporobolomyces salmonicolor; assay: Antifungal activity against Sporidiobolus salmonicolor SBUG 549 assessed as zone of inhibition after 24 hrs by disk diffusion method
Penicillium chrysogenum = assay: Antifungal activity against Penicillium chrysogenum JP36 assessed as zone of inhibition after 24 hrs by disk diffusion method

| Compound | inhibition zone (IZ) (Staphylococcus aureus [1]) [mm] | inhibition zone (IZ) (Pseudomonas aeruginosa [2]) [mm] | inhibition zone (IZ) (Mycolicibacterium vaccae) [mm] | inhibition zone (IZ) (Pseudomonas aeruginosa [3]) [mm] | inhibition zone (IZ) (Enterococcus faecalis) [mm] | inhibition zone (IZ) (Escherichia coli) [mm] | inhibition zone (IZ) (Staphylococcus aureus [4]) [mm] | inhibition zone (IZ) (Bacillus subtilis) [mm] | inhibition zone (IZ) [5] [mm] | inhibition zone (IZ) (Penicillium chrysogenum) [mm] |
| --- | --- | --- | --- | --- | --- | --- | --- | --- | --- | --- |
| O=C(N[C@H](CO)[C@H](O)c1ccc([N+](=O)[O-])cc1)C(Cl)Cl [CHLORAMPHENICOL] | 17 | 24 | 20 | 24 | 17 | 23 | 0 | 29 | – | – |
| C[C@H]1CCC[C@@]2(C)CC[C@@H](C(C)(C)O)C[C@]12O | 12 | 11 | 14 | 11 | 11 | 10 | 11 | 12 | 12 | 12 |
| C[C@@H]1[C@H](O)[C@@H](C)/C=C/C=C/C=C/C=C/C=C/C=C/C=C/[C@H](O[C@@H]2O[C@H](C)[C@@H](O)[C@H](N)[C@@H]2O)C[C@@H]2O[C@](O)(C[C@@H](O)C[C@@H](O)[C@H](O)CC[C@@H](O)C[C@@H](O)CC(=O)O[C@H]1C)C[C@H](O)[C@H]2C(=O)O [AMPHOTERICIN B] | – | – | 13 | – | – | – | – | – | 13 | 17 |
| C[C@H]1CCC[C@@]2(C)CC[C@@H](O)C[C@]12O | 0 | 10 | 0 | 10 | 0 | 10 | 0 | 10 | 0 | 0 |
| C[C@H]1C(=O)CC[C@@]2(C)CCCC[C@]12O | 0 | 10 | 0 | 10 | 10 | 0 | 0 | 10 | 0 | 0 |
